From ChEMBL document CHEMBL5154775, “Oxetane Promise Delivered: Discovery of Long-Acting IDO1 Inhibitors Suitable for Q3W Oral or Parenteral Dosing” (J Med Chem, 2022)
Values after ≈ are worked out from the molar mass of the structure shown.

Experiments:
[1] = biological target: T1, Indoleamine 2,3-dioxygenase 1 (Homo sapiens, UniProt P14902); test: Inhibition of IDO1 in IFN gamma-stimulated human HeLa cells measured after 48 hrs by fluorescence based microplate reader assay; format: cell-based
Target sequence in this assay (P14902 whole entry): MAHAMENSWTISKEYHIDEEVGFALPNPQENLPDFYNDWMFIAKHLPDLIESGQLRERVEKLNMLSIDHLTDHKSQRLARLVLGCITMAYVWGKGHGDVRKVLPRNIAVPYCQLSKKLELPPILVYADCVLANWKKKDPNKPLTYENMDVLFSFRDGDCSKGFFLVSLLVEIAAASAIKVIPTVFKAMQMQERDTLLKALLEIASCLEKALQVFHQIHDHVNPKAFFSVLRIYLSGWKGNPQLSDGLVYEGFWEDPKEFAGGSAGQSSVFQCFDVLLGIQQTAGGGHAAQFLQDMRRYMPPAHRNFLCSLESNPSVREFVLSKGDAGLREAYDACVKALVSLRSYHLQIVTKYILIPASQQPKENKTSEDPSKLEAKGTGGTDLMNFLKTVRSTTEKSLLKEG

[2] = biological target: Cytochrome P450 2C9 (Homo sapiens, UniProt P11712); test: Inhibition of CYP2C9 (unknown origin); format: ADME
Sequence of Cytochrome P450 2C9 (P11712 whole entry): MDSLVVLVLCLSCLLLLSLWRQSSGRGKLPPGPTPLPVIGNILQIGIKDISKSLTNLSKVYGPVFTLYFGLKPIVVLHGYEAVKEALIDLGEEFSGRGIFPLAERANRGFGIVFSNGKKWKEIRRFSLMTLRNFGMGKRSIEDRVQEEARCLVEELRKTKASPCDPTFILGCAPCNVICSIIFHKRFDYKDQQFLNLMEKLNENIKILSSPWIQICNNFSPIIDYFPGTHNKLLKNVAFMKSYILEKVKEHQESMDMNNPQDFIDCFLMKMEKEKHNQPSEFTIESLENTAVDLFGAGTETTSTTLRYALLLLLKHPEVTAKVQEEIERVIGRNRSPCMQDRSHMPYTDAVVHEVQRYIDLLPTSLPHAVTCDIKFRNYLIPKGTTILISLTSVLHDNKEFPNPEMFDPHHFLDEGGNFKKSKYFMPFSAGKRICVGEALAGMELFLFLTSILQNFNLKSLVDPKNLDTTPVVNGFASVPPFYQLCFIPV

[3] = Solubility of compound at pH 7; format: physicochemical; conditions: buffer
[4] = Unbound intrinsic clearance in rat hepatocytes; format: ADME, cell-based, Hepatocyte
[5] = Solubility of compound at pH 2; format: physicochemical; conditions: buffer
[6] = biological target: T1, Indoleamine 2,3-dioxygenase 1; test: Inhibition of IDO1 in IFNgamma/LPS stimulated human whole blood assessed as unbound concentration using kynurenine/tryptophan as substrate preincubated with compound for 15 mins followed by incubation with IFNgamma/LPS for 18 hrs by LC/MS/MS analysis; format: tissue-based
Target sequence in this assay (P14902 whole entry): as the sequence (P14902 whole entry) above

[7] = biological target: Voltage-gated inwardly rectifying potassium channel KCNH2 (Homo sapiens, UniProt Q12809); test: Inhibition of MK-499 binding to hERG; format: toxicity
Sequence of Voltage-gated inwardly rectifying potassium channel KCNH2 (Q12809 whole entry): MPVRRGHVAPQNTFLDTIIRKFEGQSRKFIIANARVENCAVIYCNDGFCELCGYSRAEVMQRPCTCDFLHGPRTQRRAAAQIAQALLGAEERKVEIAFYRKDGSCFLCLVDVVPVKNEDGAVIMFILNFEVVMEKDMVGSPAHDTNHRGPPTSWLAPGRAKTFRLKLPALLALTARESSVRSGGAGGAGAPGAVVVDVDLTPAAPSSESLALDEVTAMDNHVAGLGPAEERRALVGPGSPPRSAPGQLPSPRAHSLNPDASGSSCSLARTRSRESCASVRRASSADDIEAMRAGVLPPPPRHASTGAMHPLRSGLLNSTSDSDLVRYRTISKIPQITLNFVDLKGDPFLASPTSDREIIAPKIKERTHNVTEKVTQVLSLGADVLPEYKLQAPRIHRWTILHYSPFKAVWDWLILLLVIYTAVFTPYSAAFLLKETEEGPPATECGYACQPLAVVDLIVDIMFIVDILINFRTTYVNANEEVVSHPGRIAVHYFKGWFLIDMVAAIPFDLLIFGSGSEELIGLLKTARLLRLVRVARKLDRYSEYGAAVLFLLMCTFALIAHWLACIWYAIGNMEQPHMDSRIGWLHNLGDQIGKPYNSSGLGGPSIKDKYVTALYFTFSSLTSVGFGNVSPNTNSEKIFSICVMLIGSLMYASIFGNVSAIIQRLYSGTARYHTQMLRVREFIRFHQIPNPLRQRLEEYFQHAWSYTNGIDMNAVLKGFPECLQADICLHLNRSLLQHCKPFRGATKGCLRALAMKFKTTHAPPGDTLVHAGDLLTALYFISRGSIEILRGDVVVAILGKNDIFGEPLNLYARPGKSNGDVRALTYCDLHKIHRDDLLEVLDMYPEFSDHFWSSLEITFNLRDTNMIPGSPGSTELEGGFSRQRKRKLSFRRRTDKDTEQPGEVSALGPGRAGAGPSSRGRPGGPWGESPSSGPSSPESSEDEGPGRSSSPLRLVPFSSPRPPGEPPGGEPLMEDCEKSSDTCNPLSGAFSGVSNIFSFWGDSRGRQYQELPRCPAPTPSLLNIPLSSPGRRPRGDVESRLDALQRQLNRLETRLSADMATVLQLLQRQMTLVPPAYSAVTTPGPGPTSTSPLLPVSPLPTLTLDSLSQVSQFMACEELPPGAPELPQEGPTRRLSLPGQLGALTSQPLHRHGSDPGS

[8] = biological target: T1, Indoleamine 2,3-dioxygenase 1; test: Displacement of [3H] labeled-N-(4-Fluorophenyl)-3-(4-(4-(2-hydroxypropan-2-yl)-6-(trifluoromethyl)pyridin-3-yl)phenyl)oxetane-3-carboxamide from human IDO1 assessed as inhibition constant by radioligand binding assay
Target sequence in this assay (P14902 whole entry): as the sequence (P14902 whole entry) above

[9] = Unbound intrinsic clearance in human hepatocytes; format: ADME, cell-based, Hepatocyte
[10] = biological target: T1, Indoleamine 2,3-dioxygenase 1; test: Displacement of [3H] labeled-N-(4-Fluorophenyl)-3-(4-(4-(2-hydroxypropan-2-yl)-6-(trifluoromethyl)pyridin-3-yl)phenyl)oxetane-3-carboxamide from human IDO1 assessed as dissociation constant by radioligand binding assay
Target sequence in this assay (P14902 whole entry): as above

[11] = Half life in rat; format: ADME; conditions: in vivo
[12] = Volume of distribution at steady state in rat; format: ADME; conditions: in vivo
[13] = MRT in rat; format: ADME; conditions: in vivo
[14] = biological target: T1, Indoleamine 2,3-dioxygenase 1; test: Displacement of [3H] labeled-N-(4-Fluorophenyl)-3-(4-(4-(2-hydroxypropan-2-yl)-6-(trifluoromethyl)pyridin-3-yl)phenyl)oxetane-3-carboxamide from human IDO1 assessed as dissociation half life by radioligand binding assay
Target sequence in this assay (P14902 whole entry, looked up): as the sequence (P14902 whole entry) above

[15] = biological target: T1, Indoleamine 2,3-dioxygenase 1; test: Displacement of [3H] labeled-N-(4-Fluorophenyl)-3-(4-(4-(2-hydroxypropan-2-yl)-6-(trifluoromethyl)pyridin-3-yl)phenyl)oxetane-3-carboxamide from human IDO1 assessed as dissociation rate constant by radioligand binding assay
Target sequence in this assay (P14902 whole entry, looked up): as the sequence (P14902 whole entry) above

[16] = Inhibition of potassium channel (unknown origin) current; parameters: species or system Homo sapiens
[17] = Inhibition of Sodium channel (unknown origin) current; parameters: species or system Homo sapiens
[18] = Oral bioavailability in dog using spray-dried dispersion at 0.5 mg/kg by LC-MS/MS analysis; format: ADME, organism-based, Canis lupus familiaris; conditions: in vivo
[19] = Half life in Wistar Han rat at 1 mg/kg, po or 0.5 mg/kg, iv by LC-MS/MS analysis; format: ADME, organism-based; conditions: in vivo
[20] = Oral bioavailability in Wistar Han rat using spray-dried dispersion at 1 mg/kg by LC-MS/MS analysis; format: ADME, organism-based; conditions: in vivo
[21] = Oral bioavailability in Wistar Han rat using crystalline form of sample at 1 mg/kg by LC-MS/MS analysis; format: ADME, organism-based; conditions: in vivo
[22] = biological target: Indoleamine 2,3-dioxygenase 1 (Mus musculus) (UniProt P28776); test: In vivo inhibition of human IDO1 knock-in mouse CT26 cells translated in single oral gavage dosed CD1 mouse tumor model assessed as reduction in kynurenine level in tumor measured upto 24 hrs; format: functional, organism-based; conditions: dose 0.3-30 mg/kg, DDE = dose-dependent effect
Sequence of Indoleamine 2,3-dioxygenase 1 (Mus musculus) (P28776 whole entry, looked up): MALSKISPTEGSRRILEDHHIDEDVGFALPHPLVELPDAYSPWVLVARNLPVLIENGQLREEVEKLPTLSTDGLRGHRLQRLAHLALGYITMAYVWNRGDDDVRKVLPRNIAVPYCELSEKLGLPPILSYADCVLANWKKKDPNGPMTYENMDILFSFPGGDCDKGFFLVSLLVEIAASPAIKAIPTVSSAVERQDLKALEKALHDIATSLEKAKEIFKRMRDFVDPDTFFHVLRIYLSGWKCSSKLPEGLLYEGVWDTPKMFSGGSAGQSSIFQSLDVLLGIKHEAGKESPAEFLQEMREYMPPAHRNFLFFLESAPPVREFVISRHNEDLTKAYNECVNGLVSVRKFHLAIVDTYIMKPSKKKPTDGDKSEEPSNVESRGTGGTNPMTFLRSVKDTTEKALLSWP

[23] = Inhibition of Calcium channel (unknown origin) current; parameters: species or system Homo sapiens
[24] = Half life in dog at 0.5 mg/kg, po or 0.25 mg/kg, iv by LC-MS/MS analysis; format: ADME, organism-based, Canis lupus familiaris; conditions: in vivo
[25] = Oral bioavailability in dog using crystalline at 0.5 mg/kg by LC-MS/MS analysis; format: ADME, organism-based, Canis lupus familiaris; conditions: in vivo
[26] = biological target: Indoleamine 2,3-dioxygenase 1 (Mus musculus) (UniProt P28776); test: In vivo inhibition of human IDO1 knock-in mouse CT26 cells translated in single oral gavage dosed CD1 mouse tumor model assessed as reduction in kynurenine level in plasma measured upto 24 hrs; format: functional, organism-based; conditions: dose 0.3-30 mg/kg, DDE = dose-dependent effect

Row | Structure (SMILES) | IC50 [1] [nM] | solubility [3] [µM] | CL free [4] [mL/min/kg] | solubility [5] [µM] | CL free [9] [mL/min/kg] | further results
1 | CCCNC(=O)C1(c2ccc(-c3cccnc3)cc2)CCC1 | 8020 | – | – | – | – | –
2 | O=C(Nc1ccc(F)cc1)C1(c2ccc(-c3cnc(C(F)(F)F)cc3CO)cc2)COC1 | 2 | 145 (≈ 64.7 µg/mL) | < 10 | 147 (≈ 65.6 µg/mL) | 19 | IC50 [2]: 6300 nM; IC50 [6]: 2.5 nM; IC50 [7]: 22800 nM; Ki [8]: 0.15 nM; Kd [10]: 0.158 nM
3 | CCCNC(=O)C1(c2ccc(NC(=O)c3cccc(Cl)c3)cc2)CCC1 | – | – | – | – | – | half-life [11]: 0.89 h; Vdss [12]: 180 L/kg; MRT [13]: 0.7 h
4 | O=C(Nc1ccc(F)cc1)C1(c2ccc(-n3cnc(C4CC4)cc3=O)cc2)COC1 | – | 143 (≈ 58 µg/mL) | – | 140 (≈ 56.8 µg/mL) | – | IC50 [7]: > 60000 nM
5 | O=C(Nc1ccc(F)cc1)C1(c2ccc(-c3cnc(C(F)(F)F)cc3CO)cc2)CCC1 | – | < 2 | 1658 | < 2 | 376 | IC50 [2]: 905 nM; IC50 [7]: 11900 nM
6 | CCCNC(=O)C1(c2ccc(-c3ccncc3)cc2)CCC1 | > 10000 | – | – | – | – | –
7 | Cc1cc(C(F)(F)F)ncc1-c1ccc(C2(C(=O)Nc3ccc(F)cc3)COC2)cc1 | – | < 3 | 590 | < 3 | 330 | –
8 | CCCNC(=O)C1(c2ccc(-c3ccc(C)nc3)cc2)CCC1 | 1170 | – | – | – | – | –
9 | O=C(Nc1ccc(F)cc1)C1(c2ccc(-c3cnc(C(F)(F)F)cc3CO)cc2)CC(F)(F)C1 | – | 17 (≈ 8.17 µg/mL) | < 12 | 16 (≈ 7.69 µg/mL) | < 6 | IC50 [2]: 805 nM
10 | CC(C)(O)c1cc(C(F)(F)F)ncc1-c1ccc(C2(C(=O)Nc3ccc(F)cc3)COC2)cc1 | 3 | 123 (≈ 58.4 µg/mL) | 12 | 124 (≈ 58.8 µg/mL) | 11 | T1/2 [14]: 2.55 h; K [15]: 4.54 10^-3/min; IC50 [16]: 12000 nM; IC50 [2]: 8640 nM; IC50 [17]: 40000 nM; bioavailability [18]: 50%; half-life [19]: 7.4 h; IC50 [6]: 0.29 nM; bioavailability [20]: 62%; bioavailability [21]: 27%; Ki [8]: 0.11 nM; Activity [22]: Dde; IC50 [23]: 8300 nM; half-life [24]: 43 h; bioavailability [25]: 16%; Activity [26]: Dde
11 | CCCNC(=O)C1(c2ccc(-c3ccccn3)cc2)CCC1 | > 10000 | – | – | – | – | –
12 | O=C(Nc1ccc(C2(C(=O)Nc3ccc(F)cc3)COC2)cc1)c1cccc(Cl)c1 | – | – | 250 | – | 420 | –
13 | O=C(Nc1ccc(F)cc1)C1(c2ccc(-c3nc(C4CC4)no3)cc2)COC1 | – | 141 (≈ 53.5 µg/mL) | 971 | 40 (≈ 15.2 µg/mL) | 4 | IC50 [7]: 13800 nM
14 | O=C(Nc1ccc(F)cc1)C1(c2ccc(-c3ccc(C4CC4)nc3)cc2)COC1 | – | < 3 | 4361 | < 3 | 689 | IC50 [6]: 377 nM
15 | Cc1cc(C2CC2)ncc1-c1ccc(C2(C(=O)Nc3ccc(F)cc3)COC2)cc1 | – | < 3 | 6156 | 139 (≈ 55.9 µg/mL) | 365 | IC50 [6]: 0.08 nM
